Patent US20110079775A1, “Solution Processable Organic Semiconductors” (priority 2008, published 2011)

Assay type: physicochemical
Protocol: The solubility of B4MP-TIPS-An, which was synthesized in Example 1, was measured in various solvents at room temperature. This small molecule semiconductor had moderate solubility in n-butylbenzene (about 1.0 weight percent) and good solubility in dichlorobenzene (greater than 6.0 weight percent) and xylene (about 3.5 weight percent). The weight percent is based on the total solution weight.

Structure (SMILES): COc1ccc(-c2ccc3c(C#C[Si](C(C)C)(C(C)C)C(C)C)c4cc(-c5ccc(OC)cc5)ccc4c(C#C[Si](C(C)C)(C(C)C)C(C)C)c3c2)cc1 [Example B4MP-TIPS-An, 2,6-Bis(4-methoxy-phenyl)-9,10-bis-[(triisopropylsilyl)ethynyl]anthracene]
- solubility in dichlorobenzene: greater than 6.0 weight percent
- solubility in n-butylbenzene: about 1.0 weight percent
- solubility in xylene: about 3.5 weight percent
